In patent US10059701B2 (Merck Patent GmbH, priority 2015, dated 2018):
pIC50: −log10 of the molar value. Where a name gives a salt, the structure may show the parent alone.

Experiments:
[1] = molecular target: T1, IRAK4 (Homo sapiens, UniProt Q9NWZ3); experiment: IRAK4 enzymatic assay (ADP-Glo luminescence); type: biochemical; conditions: purified human recombinant His-TEV-IRAK4 (1-460), ATP 2 μM
T1 construct: His-TEV-IRAK4 (1-460); His (N); TEV cleavage site (N)
T1 sequence (Q9NWZ3 1-460): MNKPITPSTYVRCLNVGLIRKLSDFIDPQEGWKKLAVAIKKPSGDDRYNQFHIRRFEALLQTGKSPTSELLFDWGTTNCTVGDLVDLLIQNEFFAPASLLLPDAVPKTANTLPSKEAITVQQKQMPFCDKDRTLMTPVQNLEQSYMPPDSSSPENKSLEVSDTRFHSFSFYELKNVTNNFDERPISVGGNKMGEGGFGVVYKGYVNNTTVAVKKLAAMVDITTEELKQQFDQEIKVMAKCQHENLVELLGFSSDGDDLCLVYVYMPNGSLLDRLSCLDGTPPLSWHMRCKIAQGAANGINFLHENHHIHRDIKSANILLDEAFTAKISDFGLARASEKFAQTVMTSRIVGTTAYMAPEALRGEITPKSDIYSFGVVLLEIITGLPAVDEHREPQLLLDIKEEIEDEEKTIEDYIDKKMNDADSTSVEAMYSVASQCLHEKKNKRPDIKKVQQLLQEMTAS
In short: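 Recombinant His-TEV-IRAK4 (1-460) at 0.3 μg/ml preincubated 15 min at RT with compounds (10 μM to 0.5 nM) in Hepes pH 7.0 buffer with MgCl2/MnCl2. Reaction started with 2 μM ATP and 300 nM STK1-biotin peptide, run 2 h at RT. ADP formed read by ADP-Glo luminescence.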

[2] = molecular target: T2, IRAK1 (Homo sapiens, UniProt P51617); experiment: IRAK1 enzymatic assay (ADP-Glo luminescence); type: biochemical; conditions: purified human recombinant His-TEV-IRAK1 (194-712)
T2 construct: His-TEV-IRAK1 (194-712); His (N); TEV cleavage site (N)
In short: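 Recombinant human His-TEV-IRAK1 (194-712), 0.3 μg/ml, preincubated 15 min at RT with compounds (10 μM to 0.5 nM) in 50 mM Hepes pH 7.0, 10 mM MgCl2, 2 mM DTT, 0.1% BSA. ATP-started reaction run 2 hours at RT; ADP formed from ATP hydrolysis/autophosphorylation read by ADP-Glo luminescence.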

T2 sequence (P51617 194-712): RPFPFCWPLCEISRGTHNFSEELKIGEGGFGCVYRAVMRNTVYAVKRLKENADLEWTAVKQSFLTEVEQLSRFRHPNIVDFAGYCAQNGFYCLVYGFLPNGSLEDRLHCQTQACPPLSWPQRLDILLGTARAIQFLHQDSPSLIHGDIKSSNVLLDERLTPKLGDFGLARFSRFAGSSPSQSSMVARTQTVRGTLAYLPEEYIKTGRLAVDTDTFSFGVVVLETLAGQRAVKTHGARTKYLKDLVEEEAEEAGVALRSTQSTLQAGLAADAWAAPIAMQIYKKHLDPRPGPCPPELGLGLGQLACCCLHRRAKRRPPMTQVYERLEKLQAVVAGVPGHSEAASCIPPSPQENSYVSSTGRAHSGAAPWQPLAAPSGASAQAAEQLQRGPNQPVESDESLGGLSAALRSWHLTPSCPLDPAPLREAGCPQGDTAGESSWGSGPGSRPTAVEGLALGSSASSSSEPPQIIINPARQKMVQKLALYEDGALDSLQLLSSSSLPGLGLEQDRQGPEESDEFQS

| Compound | pIC50 [1] | pIC50 [2] |
| --- | --- | --- |
| O=C(/N=c1\[nH]c2cc(N3CCOCC3=O)ccc2n1[C@H]1CC[C@@H](CO)CC1)c1cccc(C(F)(F)F)c1 [Compound 122, cis-(E)-N-(1-(4-(hydroxymethyl)cyclohexyl)-5-(3-oxomorpholino)-1H-benzo[d]imidazol-2(3H)-ylidene)-3-(trifluoromethyl)benzamide] | ≥ 7.00 | ≥ 7.00 |
| O=C(/N=c1\[nH]c2cc(N3CCOCC3=O)ccc2n1[C@H]1CC[C@@H](CO)CC1)c1cccc(C(F)F)c1 [Compound 123, cis-(E)-3-(difluoromethyl)-N-(1-(4-(hydroxymethyl)cyclohexyl)-5-(3-oxomorpholino)-1H-benzo[d]imidazol-2(3H)-ylidene)benzamide] | ≥ 7.00 | ≥ 7.00 |
| CC(C)(C)OC(=O)N1CCC(n2/c(=N/C(=O)c3cccc(C(F)(F)F)c3)[nH]c3cc(N4CCOCC4=O)ccc32)CC1 [Compound 126, (E)-tert-butyl 4-(5-(3-oxomorpholino)-2-((3-(trifluoromethyl)benzoyl)imino)-2,3-dihydro-1H-benzo[d]imidazole-1-yl)piperidine-1-carboxylate] | ≥ 7.00 | < 6.00 |
| CC(C)(C)OC(=O)N1CCC(n2/c(=N/C(=O)c3cccc(C(F)F)c3)[nH]c3cc(N4CCOCC4=O)ccc32)CC1 [Compound 127, (E)-tert-butyl 4-(2-((3-(difluoromethyl)benzoyl)imino)-5-(3-oxomorpholino)-2,3-dihydro-1H-benzo[d]imidazole-1-yl)piperidine-1-carboxylate] | ≥ 7.00 | 6.00 to 7.00 |
| O=C(/N=c1\[nH]c2cc(N3CCOCC3=O)ccc2n1C1CCNCC1)c1cccc(C(F)(F)F)c1 [Compound 128, (E)-N-(5-(3-oxomorpholino)-1-(piperidin-4-yl)-1H-benzo[d]imidazole-2(3H)-ylidene)-3-(trifluoromethyl)benzamide hydrochloride] | ≥ 7.00 | < 6.00 |
| O=C(/N=c1\[nH]c2cc(N3CCOCC3=O)ccc2n1C1CCNCC1)c1cccc(C(F)F)c1 [Compound 129, (E)-3-(difluoromethyl)-N-(5-(3-oxomorpholino)-1-(piperidin-4-yl)-1H-benzo[d]imidazole-2(3H)-ylidene)benzamide hydrochloride] | ≥ 7.00 | 6.00 to 7.00 |
| CC(=O)N1CCC(n2/c(=N/C(=O)c3cccc(C(F)(F)F)c3)[nH]c3cc(N4CCOCC4=O)ccc32)CC1 [Compound 130, (E)-N-(1-(1-acetylpiperidin-4-yl)-5-(3-oxomorpholino)-1H-benzo[d]imidazole-2(3H)-ylidene)-3-(trifluoromethyl)benzamide] | ≥ 7.00 | ≥ 7.00 |
| CC(=O)N1CCC(n2/c(=N/C(=O)c3cccc(C(F)F)c3)[nH]c3cc(N4CCOCC4=O)ccc32)CC1 [Compound 131, (E)-N-(1-(1-acetylpiperidin-4-yl)-5-(3-oxomorpholino)-1H-benzo[d]imidazole-2(3H)-ylidene)-3-(difluoromethyl)benzamide] | ≥ 7.00 | 6.00 to 7.00 |
| CS(=O)(=O)N1CCC(n2/c(=N/C(=O)c3cccc(C(F)(F)F)c3)[nH]c3cc(N4CCOCC4=O)ccc32)CC1 [Compound 132, (E)-N-(1-(1-(methylsulfonyl)piperidin-4-yl)-5-(3-oxomorpholino)-1H-benzo[d]imidazole-2(3H)-ylidene)-3-(trifluoromethyl)benzamide] | ≥ 7.00 | 6.00 to 7.00 |
| CS(=O)(=O)N1CCC(n2/c(=N/C(=O)c3cccc(C(F)F)c3)[nH]c3cc(N4CCOCC4=O)ccc32)CC1 [Compound 133, (E)-3-(difluoromethyl)-N-(1-(1-(methylsulfonyl)piperidin-4-yl)-5-(3-oxomorpholino)-1H-benzo[d]imidazole-2(3H)-ylidene)benzamide] | ≥ 7.00 | ≥ 7.00 |
| CCNC(=O)N1CCC(n2/c(=N/C(=O)c3cccc(C(F)(F)F)c3)[nH]c3cc(N4CCOCC4=O)ccc32)CC1 [Compound 134, (E)-N-ethyl-4-(5-(3-oxomorpholino)-2-((3-(trifluoromethyl)benzoyl)imino)-2,3-dihydro-1H-benzo[d]imidazol-1-yl)piperidine-1-carboxamide] | ≥ 7.00 | 6.00 to 7.00 |
| CCNC(=O)N1CCC(n2/c(=N/C(=O)c3cccc(C(F)F)c3)[nH]c3cc(N4CCOCC4=O)ccc32)CC1 [Compound 135, (E)-4-(2-((3-(difluoromethyl)benzoyl)imino)-5-(3-oxomorpholino)-2,3-dihydro-1H-benzo[d]imidazol-1-yl)-N-ethylpiperidine-1-carboxamide] | ≥ 7.00 | ≥ 7.00 |
| O=C(/N=c1\[nH]c2cc(N3CCOCC3=O)ccc2n1C1CCS(=O)(=O)CC1)c1cccc(C(F)(F)F)c1 [Compound 136, (E)-N-(1-(1,1-dioxidotetrahydro-2H-thiopyran-4-yl)-5-(3-oxomorpholino)-1H-benzo[d]imidazol-2(3H)-ylidene)-3-(trifluoromethyl)benzamide] | ≥ 7.00 | 6.00 to 7.00 |
| CC(C)Oc1cc2c(cc1N1CCOCC1=O)[nH]/c(=N\C(=O)c1cccc(C(F)F)c1)n2CCCO [Compound 137, (E)-3-(difluoromethyl)-N-(1-(3-hydroxypropyl)-6-isopropoxy-5-(3-oxomorpholino)-1H-benzo[d]imidazol-2(3H)-ylidene)benzamide] | ≥ 7.00 | ≥ 7.00 |
| N#Cc1cc2c(cc1N1CCOCC1=O)[nH]/c(=N\C(=O)c1cccc(C(F)(F)F)c1)n2CCCO [Compound 138, (E)-N-(6-cyano-1-(3-hydroxypropyl)-5-(3-oxomorpholino)-1H-benzo[d]imidazol-2(3H)-ylidene)-3-(trifluoromethyl)benzamide] | ≥ 7.00 | < 6.00 |
| O=C(/N=c1\[nH]c2cc(N3CCOCC3=O)c(F)cc2n1CCCO)c1cccc(C(F)(F)F)c1 [Compound 139, (E)-N-(6-fluoro-1-(3-hydroxypropyl)-5-(3-oxomorpholino)-1H-benzo[d]imidazol-2(3H)-ylidene)-3-(trifluoromethyl)benzamide] | ≥ 7.00 | 6.00 to 7.00 |
| O=C(/N=c1\[nH]c2cc(N3CCOCC3=O)c(F)cc2n1CCCO)c1cccc(C(F)F)c1 [Compound 140, (E)-3-(difluoromethyl)-N-(6-fluoro-1-(3-hydroxypropyl)-5-(3-oxomorpholino)-1H-benzo[d]imidazol-2(3H)-ylidene)benzamide] | ≥ 7.00 | 6.00 to 7.00 |
| O=C(/N=c1\[nH]c2cc(N3CCOCC3=O)c(Cl)cc2n1CCCO)c1cccc(C(F)(F)F)c1 [Compound 141, (E)-N-(6-chloro-1-(3-hydroxypropyl)-5-(3-oxomorpholino)-1H-benzo[d]imidazol-2(3H)-ylidene)-3-(trifluoromethyl)benzamide] | ≥ 7.00 | < 6.00 |
| O=C(/N=c1\[nH]c2cc(N3CCOCC3=O)c(Cl)cc2n1CCCO)c1cccc(C(F)F)c1 [Compound 142, (E)-N-(6-chloro-1-(3-hydroxypropyl)-5-(3-oxomorpholino)-1H-benzo[d]imidazol-2(3H)-ylidene)-3-(difluoromethyl)benzamide] | ≥ 7.00 | 6.00 to 7.00 |
| COc1cc2c(cc1N1CCOCC1=O)[nH]/c(=N\C(=O)c1cccc(C(F)(F)F)c1)n2[C@H](C)CCO [Compound 143, (R,E)-N-(1-(4-hydroxybutan-2-yl)-6-methoxy-5-(3-oxomorpholino)-1H-benzo[d]imidazol-2(3H)-ylidene)-3-(trifluoromethyl)benzamide] | ≥ 7.00 | 6.00 to 7.00 |
| O=C(/N=c1\[nH]c2cc(N3CCCOC3=O)ccc2n1CC(F)CO)c1cccc(C(F)(F)F)c1 (stereo not drawn) [Compound 145, (E)-N-(1-(2-fluoro-3-hydroxypropyl)-5-(2-oxo-1,3-oxazinan-3-yl)-1H-benzo[d]imidazol-2(3H)-ylidene)-3-(trifluoromethyl)benzamide] | ≥ 7.00 | ≥ 7.00 |
| N#Cc1cccc(C(=O)/C=C2\Nc3cc(N4CCOCC4=O)ccc3N2CCCO)c1 [Compound 146, (E)-3-(2-(1-(3-hydroxypropyl)-5-(3-oxomorpholino)-1H-benzo[d]imidazol-2(3H)-ylidene)acetyl)benzonitrile] | 6.00 to 7.00 | 6.00 to 7.00 |
| O=C(/C=C1\Nc2cc(N3CCOCC3=O)ccc2N1CCCO)c1cccc(C(F)(F)F)n1 [Compound 147, (E)-4-(1-(3-hydroxypropyl)-2-(2-oxo-2-(6-(trifluoromethyl)pyridin-2-yl)ethylidene)-2,3-dihydro-1H-benzo[d]imidazol-5-yl)morpholin-3-one] | ≥ 7.00 | 6.00 to 7.00 |
| O=C(/C=C1\Nc2cc(N3CCOCC3=O)ccc2N1CCCO)c1cccc(Br)n1 [Compound 148, (E)-4-(2-(2-(6-bromopyridin-2-yl)-2-oxoethylidene)-1-(3-hydroxypropyl)-2,3-dihydro-1H-benzo[d]imidazol-5-yl)morpholin-3-one] | ≥ 7.00 | 6.00 to 7.00 |
